According to the PolyMetriX glass transition set:
± gives the standard deviation of the reports.

For `*c1ccc(C(=O)c2ccc(-n3nc(-c4ccc(Oc5ccc(-c6nn(*)c(=O)c7ccccc67)cc5)cc4)c4ccccc4c3=O)cc2)cc1` (repeat unit), the glass transition temperature was 301.00 °C.
Compound `*CCCC1(CCCNC(=O)CCC2(CCC(=O)N*)c3ccccc3-c3ccccc32)c2ccccc2-c2ccccc21` (repeat unit) has a glass transition temperature of 165.00 °C.
Work on `*CCCC1CC(=O)N(*)C(=O)C1` (repeat unit) yielded a glass transition temperature of 90.00 °C.
For `*CC(*)(C)C(=O)OCCC(F)(F)C(F)(F)C(F)(F)C(F)(F)C(F)(F)C(F)(F)C(F)(F)C(F)(F)F` (repeat unit), the glass transition temperature was 47.00 °C.
`*Oc1ccc(C(C)(CC)c2ccc(OC(*)=O)c(C)c2)cc1C` (repeat unit) showed a glass transition temperature of 119.00 °C.
For `*Oc1ccc(Oc2ccc(C(=O)Nc3ccc(Oc4ccc(-c5ccc(Oc6ccc(NC(=O)c7ccc(*)cc7)cc6)cc5)cc4)cc3)cc2)cc1C` (repeat unit), the glass transition temperature was 220.00 °C.
For `*Oc1ccc(C(C)(CCC)c2ccc(OC(*)=O)cc2)cc1` (repeat unit) [Poly[2,2-pentane bis(4-phenyl)carbonate]], the glass transition temperature was 137 ± 0.6 °C.
Work on `*OC(COC(=O)c1ccc(-c2cc(CCCCCCCC)c(-c3ccc(C(*)=O)c(F)c3F)cc2CCCCCCCC)c(F)c1F)COc1ccc(/N=N/c2ccc(C#N)cc2)cc1` (repeat unit) yielded a glass transition temperature of 61.00 °C.
With `*CC(*)C(=O)OCCCOc1ccc(C(=O)OCCCC(F)(F)C(F)(F)C(F)(F)C(F)(F)C(F)(F)C(F)(F)F)cc1` (repeat unit) the glass transition temperature was 17.00 °C.
`*Oc1c(-c2ccccc2)cc(*)cc1-c1cccc2ccccc12` (repeat unit) showed a glass transition temperature of 234.00 °C.
`*CCCCCCCCNC(=O)c1ccc(C(=O)N*)cc1` (repeat unit) showed a glass transition temperature of 123.00 °C.
For `*CC(*)P(=O)(c1ccccc1)c1ccccc1` (repeat unit), the glass transition temperature was 127.50 °C.
For `*CC(*)(C)C(=O)OC1(C)C2CC3CC(C2)CC1C3` (repeat unit), the glass transition temperature was 165.00 °C.
In the case of `*c1ccc(Oc2ccc(-c3ccc(Oc4ccc(N5C(=O)c6cccc(Oc7c(C)cc(-c8cc(C)c(Oc9cccc%10c9C(=O)N(*)C%10=O)c(C)c8)cc7C)c6C5=O)cc4)cc3)cc2)cc1` (repeat unit), the glass transition temperature is reported as 290.00 °C.
Work on `*Oc1c(C)cc(C(C)(C)c2cc(C)c(OC(=O)c3cccc(C(*)=O)c3)c(C)c2)cc1C` (repeat unit) yielded a glass transition temperature of 187.00 °C.
`*O[Si](C)(C)CCCC(=O)Oc1ccc(/C=N/c2ccc(/N=C/c3ccc(OC(=O)CCC[Si](*)(C)C)cc3)cc2)cc1` (repeat unit) gave a glass transition temperature of 60.00 °C.
For `*CC(*)C1CCCCC1C` (repeat unit), the glass transition temperature was 186.00 °C.
`*CCN(CCOC(=O)c1ccc(C(=O)O*)c(OC)c1)c1ccc(/N=N/c2ccc(-c3nc4ccc([N+](=O)[O-])cc4n3CC)cc2)cc1` (repeat unit) showed a glass transition temperature of 146.00 °C.
`*c1ccc2[nH]c(*)nc2c1` (repeat unit) gave a glass transition temperature of 398.00 °C.
Work on `*O[Si](*)(C)CCCCCCn1c2ccccc2c2ccccc21` (repeat unit) yielded a glass transition temperature of -5.00 °C.
Work on `*c1ccc2c3ccc(-c4ccc(-c5ccc(-c6ccc(*)s6)c6nsnc56)s4)cc3n(C(CCCCCCCC)CCCCCCCC)c2c1` (repeat unit) yielded a glass transition temperature of 121.00 ± 7.1 °C.
In the case of `*Oc1cccc(C(=O)c2ccc(Oc3ccc(C(=O)c4ccc(*)cc4)cc3)cc2)c1` (repeat unit), the glass transition temperature is reported as 146.00 °C.
In the case of `*c1ccc(-c2nc3cc(-c4ccc5oc(*)nc5c4)ccc3o2)cc1` (repeat unit), the glass transition temperature is reported as 430.00 °C.
`*Oc1ccc(Oc2ccc(NC(=O)c3ccc(Oc4ccc(Oc5ccc(C(=O)Nc6ccc(*)cc6)cc5)cc4)cc3)cc2)cc1` (repeat unit) gave a glass transition temperature of 236.00 °C.
`*CCCCCCNC(=O)Cc1ccc(CC(=O)N*)cc1` (repeat unit) gave a glass transition temperature of 95.00 °C.
In the case of `*Oc1ccc(C2(c3ccc(OC(=O)c4ccc(C(*)=O)cc4)cc3)c3ccccc3C(=O)c3ccccc32)cc1` (repeat unit), the glass transition temperature is reported as 400.00 °C.
